Tested on: 966289-007-R4-J1-PDC complex spheroid viability
Test: Anticancer human tumor 966289-007-R4-J1-PDC patient-derived pancreatic adenocarcinoma cell line growth inhibition [RAS]
Settings: for IC50: curve of first compound; for viability, T/C: stronger effect = lower value
Procedure, shortened: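 Multi-cell-type spheroids: tumor cells plus HUVEC endothelial cells and mesenchymal stem cells. RAS-pathway inhibitors were combined with targeted agents, each dosed in half-log steps down from clinical Cmax, or from 10 microM when Cmax was unknown.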

[1] = second compound 0.000949 µM, first compound 0.0316 µM
[2] = second compound 0.000949 µM, first compound 0.1 µM
[3] = second compound 0.000949 µM, first compound 0.316 µM
[4] = second compound 0.000949 µM, first compound 1 µM
[5] = second compound 0.000949 µM, first compound 3.16 µM
[6] = second compound 0.000949 µM, first compound 10 µM
[7] = second compound 0.003 µM, first compound 0.0316 µM
[8] = second compound 0.003 µM, first compound 0.1 µM
[9] = second compound 0.003 µM, first compound 0.316 µM
[10] = second compound 0.003 µM, first compound 1 µM
[11] = second compound 0.003 µM, first compound 3.16 µM
[12] = second compound 0.003 µM, first compound 10 µM
[13] = second compound 0.00949 µM, first compound 0.0316 µM
[14] = second compound 0.00949 µM, first compound 0.1 µM
[15] = second compound 0.00949 µM, first compound 0.316 µM
[16] = second compound 0.00949 µM, first compound 1 µM
[17] = second compound 0.00949 µM, first compound 3.16 µM
[18] = second compound 0.00949 µM, first compound 10 µM
[19] = second compound 0.03 µM, first compound 0.0316 µM
[20] = second compound 0.03 µM, first compound 0.1 µM
[21] = second compound 0.03 µM, first compound 0.316 µM
[22] = second compound 0.03 µM, first compound 1 µM
[23] = second compound 0.03 µM, first compound 3.16 µM
[24] = second compound 0.03 µM, first compound 10 µM
[25] = second compound 0.0949 µM, first compound 0.0316 µM
[26] = second compound 0.0949 µM, first compound 0.1 µM
[27] = second compound 0.0949 µM, first compound 0.316 µM
[28] = second compound 0.0949 µM, first compound 1 µM
[29] = second compound 0.0949 µM, first compound 3.16 µM
[30] = second compound 0.0949 µM, first compound 10 µM
[31] = second compound 0.3 µM, first compound 0.0316 µM
[32] = second compound 0.3 µM, first compound 0.1 µM
[33] = second compound 0.3 µM, first compound 0.316 µM
[34] = second compound 0.3 µM, first compound 1 µM
[35] = second compound 0.3 µM, first compound 3.16 µM
[36] = second compound 0.3 µM, first compound 10 µM
[37] = second compound 0.0316 µM, first compound 0.0316 µM
[38] = second compound 0.0316 µM, first compound 0.1 µM
[39] = second compound 0.0316 µM, first compound 0.316 µM
[40] = second compound 0.0316 µM, first compound 1 µM
[41] = second compound 0.1 µM, first compound 0.0316 µM
[42] = second compound 0.1 µM, first compound 0.1 µM
[43] = second compound 0.1 µM, first compound 0.316 µM
[44] = second compound 0.1 µM, first compound 1 µM
[45] = second compound 0.316 µM, first compound 0.0316 µM
[46] = second compound 0.316 µM, first compound 0.1 µM
[47] = second compound 0.316 µM, first compound 0.316 µM
[48] = second compound 0.316 µM, first compound 1 µM
[49] = second compound 1 µM, first compound 0.0316 µM
[50] = second compound 1 µM, first compound 0.1 µM
[51] = second compound 1 µM, first compound 0.316 µM
[52] = second compound 1 µM, first compound 1 µM
[53] = second compound 3.16 µM, first compound 0.0316 µM
[54] = second compound 3.16 µM, first compound 0.1 µM
[55] = second compound 3.16 µM, first compound 0.316 µM
[56] = second compound 3.16 µM, first compound 1 µM
[57] = second compound 10 µM, first compound 0.0316 µM
[58] = second compound 10 µM, first compound 0.1 µM
[59] = second compound 10 µM, first compound 0.316 µM
[60] = second compound 10 µM, first compound 1 µM
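Note: spheroids exposed to agents for one week before readout.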
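Throughout, for viability, T/C: percent viability relative to DMSO vehicle control wells as 100%.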

CC(C)NCC(C(=O)N1CCN(c2ncnc3c2C(C)CC3O)CC1)c1ccc(Cl)cc1 (stereo not drawn) + CCn1c(-c2cccnc2C(C)OC)c2c3cc(ccc31)N1CCOC(CC(NC(=O)C(C(C)C)N(C)C(=O)C3(F)CCN(C(=O)C#CC(C)(C)N(C)C)CC3)C(=O)N3CCCC(N3)C(=O)OCC(C)(C)C2)C1
IC50 (second compound 0.000949 µM): 2760 nM
IC50 (second compound 0.003 µM): 4850 nM
IC50 (second compound 0.00949 µM): 5110 nM
IC50 (second compound 0.03 µM): 6160 nM
IC50 (second compound 0.0949 µM): 6640 nM
IC50 (second compound 0.3 µM): 5350 nM
viability, T/C [1]: 99.4%
viability, T/C [2]: 94.4%
viability, T/C [3]: 117%
viability, T/C [4]: 85.7%
viability, T/C [5]: 46.3%
viability, T/C [6]: 28.5%
viability, T/C [7]: 99.2%
viability, T/C [8]: 82.3%
viability, T/C [9]: 98.9%
viability, T/C [10]: 94.6%
viability, T/C [11]: 62.2%
viability, T/C [12]: 29.4%
viability, T/C [13]: 70.3%
viability, T/C [14]: 89.2%
viability, T/C [15]: 97.2%
viability, T/C [16]: 114%
viability, T/C [17]: 62%
viability, T/C [18]: 33.2%
viability, T/C [19]: 57.3%
viability, T/C [20]: 72.6%
viability, T/C [21]: 103%
viability, T/C [22]: 92.4%
viability, T/C [23]: 62.3%
viability, T/C [24]: 41.1%
viability, T/C [25]: 63.9%
viability, T/C [26]: 94.5%
viability, T/C [27]: 126%
viability, T/C [28]: 90.8%
viability, T/C [29]: 75.6%
viability, T/C [30]: 35.9%
viability, T/C [31]: 92.5%
viability, T/C [32]: 97%
viability, T/C [33]: 107%
viability, T/C [34]: 99.9%
viability, T/C [35]: 58%
viability, T/C [36]: 40.4%

O=C(c1ccc(F)c(F)c1Nc1ccc(I)cc1F)N1CC(O)([C@@H]2CCCCN2)C1 + C#Cc1c(F)ccc2cc(O)cc(-c3ncc4c(N5CC6CCC(C5)N6)nc(OCC56CCCN5CC(F)C6)nc4c3F)c12
IC50 (second compound 0.0316 µM): 397 nM
IC50 (second compound 0.1 µM): 376 nM
IC50 (second compound 0.316 µM): 395 nM
IC50 (second compound 1 µM): 409 nM
IC50 (second compound 3.16 µM): 404 nM
IC50 (second compound 10 µM): 522 nM
viability, T/C (second compound 0.0316 µM, first compound 0.00316 µM): 87%
viability, T/C (second compound 0.0316 µM, first compound 0.01 µM): 68.4%
viability, T/C [37]: 78%
viability, T/C [38]: 66.3%
viability, T/C [39]: 55.5%
viability, T/C [40]: 31.8%
viability, T/C (second compound 0.1 µM, first compound 0.00316 µM): 96.2%
viability, T/C (second compound 0.1 µM, first compound 0.01 µM): 73.7%
viability, T/C [41]: 61.7%
viability, T/C [42]: 66.3%
viability, T/C [43]: 64.5%
viability, T/C [44]: 33.3%
viability, T/C (second compound 0.316 µM, first compound 0.00316 µM): 76%
viability, T/C (second compound 0.316 µM, first compound 0.01 µM): 70.3%
viability, T/C [45]: 73%
viability, T/C [46]: 60.8%
viability, T/C [47]: 56.4%
viability, T/C [48]: 33.3%
viability, T/C (second compound 1 µM, first compound 0.00316 µM): 74.5%
viability, T/C (second compound 1 µM, first compound 0.01 µM): 74.4%
viability, T/C [49]: 65%
viability, T/C [50]: 65.2%
viability, T/C [51]: 56.6%
viability, T/C [52]: 32.8%
viability, T/C (second compound 3.16 µM, first compound 0.00316 µM): 78.6%
viability, T/C (second compound 3.16 µM, first compound 0.01 µM): 72.9%
viability, T/C [53]: 70.7%
viability, T/C [54]: 64.4%
viability, T/C [55]: 54.2%
viability, T/C [56]: 36.3%
viability, T/C (second compound 10 µM, first compound 0.00316 µM): 77.7%
viability, T/C (second compound 10 µM, first compound 0.01 µM): 69.8%
viability, T/C [57]: 71.2%
viability, T/C [58]: 66%
viability, T/C [59]: 59.4%
viability, T/C [60]: 39.3%

Cc1nc(N2CCC3(CC2)COC(C)C3N)c(CO)nc1Sc1ccnc(N)c1Cl (stereo not drawn) + CCn1c(-c2cc(N3CCN(C)CC3)cnc2C(C)OC)c2c3cc(ccc31)-c1csc(n1)CC(NC(=O)C1CC1C)C(=O)N1CCCC(N1)C(=O)OCC(C)(C)C2
IC50 (second compound 0.000949 µM): > 10000 nM
IC50 (second compound 0.003 µM): > 10000 nM
IC50 (second compound 0.00949 µM): > 10000 nM
IC50 (second compound 0.03 µM): > 10000 nM
IC50 (second compound 0.0949 µM): > 10000 nM
IC50 (second compound 0.3 µM): > 10000 nM
viability, T/C [1]: 130%
viability, T/C [2]: 121%
viability, T/C [3]: 107%
viability, T/C [4]: 85.4%
viability, T/C [5]: 93.8%
viability, T/C [6]: 115%
viability, T/C [7]: 114%
viability, T/C [8]: 92.9%
viability, T/C [9]: 94.1%
viability, T/C [10]: 86.7%
viability, T/C [11]: 81.5%
viability, T/C [12]: 97.1%
viability, T/C [13]: 106%
viability, T/C [14]: 99.2%
viability, T/C [15]: 84.4%
viability, T/C [16]: 122%
viability, T/C [17]: 86.1%
viability, T/C [18]: 97.7%
viability, T/C [19]: 87.4%
viability, T/C [20]: 69.8%
viability, T/C [21]: 102%
viability, T/C [22]: 107%
viability, T/C [23]: 79.9%
viability, T/C [24]: 102%
viability, T/C [25]: 75.6%
viability, T/C [26]: 131%
viability, T/C [27]: 86.9%
viability, T/C [28]: 119%
viability, T/C [29]: 113%
viability, T/C [30]: 117%
viability, T/C [31]: 92.3%
viability, T/C [32]: 88.6%
viability, T/C [33]: 110%
viability, T/C [34]: 108%
viability, T/C [35]: 111%
viability, T/C [36]: 103%

CC(=O)OC12COC1CC(O)C1(C)C(=O)C(O)C3=C(C)C(OC(=O)C(O)C(NC(=O)OC(C)(C)C)c4ccccc4)CC(O)(C(OC(=O)c4ccccc4)C21)C3(C)C (stereo not drawn) + C#Cc1c(F)ccc2cc(O)cc(-c3ncc4c(N5CC6CCC(C5)N6)nc(OCC56CCCN5CC(F)C6)nc4c3F)c12
IC50 (second compound 0.0316 µM): < 31.6 nM
IC50 (second compound 0.1 µM): < 31.6 nM
IC50 (second compound 0.316 µM): < 31.6 nM
IC50 (second compound 1 µM): < 31.6 nM
IC50 (second compound 3.16 µM): < 31.6 nM
IC50 (second compound 10 µM): < 31.6 nM
viability, T/C [37]: 9.75%
viability, T/C [38]: 17.9%
viability, T/C [39]: 20.4%
viability, T/C [40]: 25.6%
viability, T/C (second compound 0.0316 µM, first compound 3.16 µM): 50.5%
viability, T/C (second compound 0.0316 µM, first compound 10 µM): 69.9%
viability, T/C [41]: 10.9%
viability, T/C [42]: 17.9%
viability, T/C [43]: 19.7%
viability, T/C [44]: 24.3%
viability, T/C (second compound 0.1 µM, first compound 3.16 µM): 36.3%
viability, T/C (second compound 0.1 µM, first compound 10 µM): 70.3%
viability, T/C [45]: 10.4%
viability, T/C [46]: 19.1%
viability, T/C [47]: 19.3%
viability, T/C [48]: 26%
viability, T/C (second compound 0.316 µM, first compound 3.16 µM): 49.9%
viability, T/C (second compound 0.316 µM, first compound 10 µM): 68.4%
viability, T/C [49]: 9.72%
viability, T/C [50]: 18.3%
viability, T/C [51]: 21.2%
viability, T/C [52]: 31.8%
viability, T/C (second compound 1 µM, first compound 3.16 µM): 44.9%
viability, T/C (second compound 1 µM, first compound 10 µM): 71.8%
viability, T/C [53]: 10.6%
viability, T/C [54]: 20.9%
viability, T/C [55]: 25%
viability, T/C [56]: 31.7%
viability, T/C (second compound 3.16 µM, first compound 3.16 µM): 44.6%
viability, T/C (second compound 3.16 µM, first compound 10 µM): 83.2%
viability, T/C [57]: 10.5%
viability, T/C [58]: 16.6%
viability, T/C [59]: 17.8%
viability, T/C [60]: 27.1%
viability, T/C (second compound 10 µM, first compound 3.16 µM): 42.6%
viability, T/C (second compound 10 µM, first compound 10 µM): 53.9%
